The values that follow come from US9238643B2, “Amide compounds” (Guangzhou Institutes of Biomedicine and Health, Chinese …, priority 2010, dated 2016).

In the experiment the test system is IL-1β secretion of BV2. In words: Inhibition of LPS-induced IL-1β secretion of BV2 microglial cells (ELISA). The following applies: BV-2, 24 hours; for IC50: BV2 cells, 300 ng/ml LPS induction, IL-1β by ELISA, read-out: IC50 of inhibition of the compounds of the present application to IL-1β secretion of BV2; for inhibition at 0.02 µM: Mus musculus, IL-1β secretion of BV2, compound concentration 20 nM, LPS induction, read-out: Inhibition rate (%) at 20 nM. The class given is cell-based. On the procedure:
1. […] microglial cell BV2 and Glioma cell line C6 are incubated in DMEM culture medium with 10% FBS, and the 6th to 15th generation culture cells are applicable for compound activity selection. Culture cells are innoculated on the 24-well cell culturing plate with 50,000 cells/well, after one day culturing, switch to low serum medium (with 2% FBS) for another 16 hours culturing. Add 300 ng/ml (for induction of BV2 cells) or 1 mg/mL (for induction of C6 cells) LPS (Salmonella typhimutium) to the culture medium to induce the IL-1β secretion of culture cells. At the same time, add sample to be determined (with DMSO≦0.1%) at concentrations of 200 pM, 20 nM, 2 μM and 200 μM; add 0.1% DMSO to blank as solvent control.
2. 24 hours after LPS induction/drug treatment, collect the culture solution and quantitatively measure the level of IL-1β. Centrifuge the culture solution at 8,000 g for 10 min at 4° C., and remove the floating particle impurities. Dilute the supernant one time, and take 150 μL sample for ELISA (Biosource) measurement.
3. Treatment of culture cells and ELISA measurement are conducted with double blind method.
4 Inhibition efficiency of candidate compound is calculated according to formula, and IC50 of every kind of candidate compound is calculated. Inhibition efficiency(%)=([IL-1β]LPS induction−[IL-1β]medical treatment)/[IL-1β]LPS induction×100%. Formula
5. Efficiency evaluation of candidate compound: positive inhibition rate of compound to IL-1β secretion of BV2 is the standard judgment of compounds efficiency; negative inhibition rate of compound to IL-1β secretion of C6 is the standard judgment of compounds safety.
For orientation: In an ELISA, binding on a coated surface is turned into a signal by an enzyme label.

The IC50 is the concentration that inhibits the measured activity by half. As a reminder, the inhibition is the relative decrease from the control value, in per cent. In the case of `Cc1cc(-c2ccccc2)nnc1C(=O)N1CCN(c2ccc(F)cc2)CC1` [Compound 4, (4-(4-fluorophenyl)piperazinyl) (4-methyl-6-phenylpyridazinyl) ketone], the 50% inhibitory concentration (IC50) was determined as 0.56 nM and the inhibition at 0.02 µM amounted to 54.6%. Take `Cc1cc(-c2ccccc2)nnc1C(=O)N1CCN(c2ncccn2)CC1` [Compound 5, (2-pyrimidylpiperazinyl)(4-methyl-6-phenylpyridazinyl)ketone]: the IC50 stood at 0.6 nM and the inhibition at 0.02 µM was 54.5%. Consider `O=C(c1nc(-c2ccccc2)nc2ccccc12)N1CCN(c2ccc(F)cc2)CC1` [Compound 11, (4-(4-fluorophenyl)piperazinyl) (2-phenylquinazolinyl) ketone], for which the IC50 amounted to 3.38 nM. Take `O=C(c1nc(-c2ccccc2)nc2ccccc12)N1CCN(c2ncc(F)cn2)CC1` [Compound 12, (4-(5-fluoropyrimid-2-yl)piperazinyl)(2-phenylquinazolinyl) ketone]: the IC50 is 1.42 nM. Take `O=C(c1nc(-c2ccccc2)nc2ccccc12)N1CCN(c2ncccn2)CC1` [Compound 12a, (4-(pyrimid-2-yl)piperazinyl) (2-phenylquinazolinyl) ketone]: the concentration for half-maximal inhibition (IC50) turned out to be 0.16 nM and the inhibition at 0.02 µM was 46.1%.

As for `O=C(c1nc(-c2ccccc2)nc2ccccc12)N1CCN(c2ccccn2)CC1` [Compound 13, (4-(2-pyridinyl)piperazinyl)(2-phenylquinazolinyl)ketone], the IC50 worked out at 24.3 nM. With `O=C(c1n[nH]c2c(F)ccc(F)c12)N1CCN(c2ccc(F)cc2)CC1` [Compound 20, (4-(4-fluorophenyl)piperazinyl) (4,7-difluoroindazol-3-yl) ketone], the concentration for half-maximal inhibition (IC50) stood at 42.5 nM and the inhibition at 0.02 µM is 48.06 ± 0.0618%. With `Cc1cc(-c2ccccc2)nnc1C(=O)N1CCN(c2ncc(F)cn2)CC1` [Compound 24], the IC50 is 5.49 nM.

For `Cc1cc(-c2ccccc2)nnc1C(=O)N1CCN(C)CC1` [Compound 26, (N-methylpiperazinyl) (4-methyl-6-phenylpyridazinyl) ketone], the IC50 came out at 0.11 nM.
